These results are taken from ChEMBL document CHEMBL4184094, “Spiro-1-benzofuranpiperidinylalkanoic acids as a novel and selective sphingosine S1P5 receptor agonist chemotype” (Bioorg Med Chem Lett, 2018).

≈ marks a conversion by molar mass, not a printed value.

In general, EC50 refers to the midpoint of the concentration-response curve. For orientation: microsomal CLint means the rate of metabolic loss divided by the concentration. Lower therefore signals slow turnover. One may read the half-life as how long it takes for the measured level to halve. Read a low half-life as fast loss. As a reminder, the bioavailability is dose-corrected exposure relative to a reference, in per cent. High values mean good availability, low ones poor availability. By Kp is commonly meant tissue or fluid exposure divided by exposure in the circulation.

Data set [1] has as its target Sphingosine 1-phosphate receptor 5 (Homo sapiens, UniProt Q9H228). The data set is described as follows: Agonist activity at human S1P5 receptor expressed in CHO cells assessed as increase in calcium flux by aequorin-derived luminescence assay. It is filed as functional, cell-based.
Data set [2] concerns the target Sphingosine 1-phosphate receptor 1 (Homo sapiens, UniProt P21453). The data set is described as follows: Agonist activity at human S1P1 receptor expressed in CHO cells assessed as increase in calcium flux by aequorin-derived luminescence assay. It is filed as functional, cell-based.
The target in data set [3] is Sphingosine 1-phosphate receptor 3 (Homo sapiens, UniProt Q99500). The data set is described as follows: Agonist activity at human S1P3 receptor expressed in CHO cells assessed as increase in calcium flux by aequorin-derived luminescence assay. It is filed as functional, cell-based. On the technique in general: Calcium flux is commonly read through the fluorescence of an indicator in the cells.

Data set [4] in a line: Aqueous kinetic solubility of the compound by turbidimetric method. It is filed as physicochemical. The note with it: buffer; read-out: Kinetic_solubility.
Data set [5] is described as follows: Intrinsic clearance in human microsomes assessed per mg protein. The format is ADME, Microsome.
Data set [6] is described as follows: Half life in human microsomes assessed per mg protein. The format is ADME, Microsome.
A short description of data set [7]: Oral bioavailability in rat. The note with it: in vivo. It is filed as ADME, organism-based.
The nature of data set [8]: Ratio of drug uptake in CNS to plasma in po dosed rat. The format is ADME, organism-based. Conditions: CNS and plasma.
The species entered for data set [9] is Homo sapiens. The data set is described as follows: Selectivity ratio of EC50 for human S1P5 receptor expressed in CHO cells to EC50 for human S1P3 receptor expressed in CHO cells. It is filed as cell-based.
Data set [10] is filed under the species Homo sapiens. Nature of the data set: Selectivity ratio of EC50 for human S1P5 receptor expressed in CHO cells to EC50 for human S1P1 receptor expressed in CHO cells. The format is cell-based.

Sequence of Sphingosine 1-phosphate receptor 3 (Q99500 whole entry): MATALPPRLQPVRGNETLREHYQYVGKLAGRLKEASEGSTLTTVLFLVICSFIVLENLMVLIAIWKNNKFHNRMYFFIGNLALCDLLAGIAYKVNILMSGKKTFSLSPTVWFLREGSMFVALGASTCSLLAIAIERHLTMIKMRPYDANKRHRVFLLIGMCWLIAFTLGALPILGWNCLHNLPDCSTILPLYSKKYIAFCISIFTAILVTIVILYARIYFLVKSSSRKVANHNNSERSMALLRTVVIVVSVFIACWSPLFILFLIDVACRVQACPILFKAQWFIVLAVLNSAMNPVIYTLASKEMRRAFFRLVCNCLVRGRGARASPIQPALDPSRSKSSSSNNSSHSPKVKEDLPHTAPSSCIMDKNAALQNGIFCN
Sequence of Sphingosine 1-phosphate receptor 5 (Q9H228 whole entry): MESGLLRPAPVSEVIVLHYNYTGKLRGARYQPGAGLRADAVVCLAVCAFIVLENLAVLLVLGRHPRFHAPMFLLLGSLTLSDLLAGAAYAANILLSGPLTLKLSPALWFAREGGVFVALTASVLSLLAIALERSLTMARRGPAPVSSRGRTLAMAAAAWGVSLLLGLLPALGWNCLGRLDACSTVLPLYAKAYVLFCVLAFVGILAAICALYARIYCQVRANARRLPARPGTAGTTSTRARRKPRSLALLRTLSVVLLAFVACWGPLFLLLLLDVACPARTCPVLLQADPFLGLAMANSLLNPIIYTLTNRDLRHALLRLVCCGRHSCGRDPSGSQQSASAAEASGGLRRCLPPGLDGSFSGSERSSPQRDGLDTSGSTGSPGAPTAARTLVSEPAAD
Sequence of Sphingosine 1-phosphate receptor 1 (P21453 whole entry): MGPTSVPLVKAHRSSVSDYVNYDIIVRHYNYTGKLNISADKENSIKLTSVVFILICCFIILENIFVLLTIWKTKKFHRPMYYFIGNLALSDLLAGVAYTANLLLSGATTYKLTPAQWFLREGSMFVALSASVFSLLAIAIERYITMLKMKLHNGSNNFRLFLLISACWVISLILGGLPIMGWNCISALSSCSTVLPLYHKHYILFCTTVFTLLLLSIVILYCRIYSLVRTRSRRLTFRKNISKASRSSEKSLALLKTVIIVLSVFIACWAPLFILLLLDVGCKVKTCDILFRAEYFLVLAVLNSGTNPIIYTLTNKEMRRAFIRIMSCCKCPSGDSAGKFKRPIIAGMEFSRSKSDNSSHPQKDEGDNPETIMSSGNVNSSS

Regarding `Cl.O=C(O)CN1CCC2(CC1)COc1cc(S(=O)(=O)Cc3c(Cl)cccc3Cl)ccc12`, the EC50 in data set [1] was 794 nM; in data set [2] it was above 31600 nM; in [3], above 10000 nM. For the same compound, the solubility kinetic in data set [4] is at least 100 µM. Moreover, the CL in data set [5] is 33 µL/min. Besides, the t1/2 in data set [6] came to 2.15 h.
Consider `Cl.O=C(O)CCN1CCC2(CC1)COc1cc(/C=C/c3c(Cl)cccc3Cl)ccc12`, for which the EC50 in data set [1] is 12.6 nM; in [2], above 31600 nM. The solubility kinetic in data set [4] lay within 30 to 100 µM. This compound returned a microsomal CLint in data set [5] of 0.76 µL/min/mg. In data set [6], this compound registered a half-life of 30.3 h. In addition, in data set [7], the bioavailability turned out to be 73%. Besides, in data set [8], the Kp stood at 0.8.
For the compound `Cl.O=C(O)CCN1CCC2(CC1)COc1cc(C#Cc3ccccc3)ccc12`, the EC50 in data set [1] was 39.8 nM. The solubility kinetic in data set [4] turned out to be 100 µM. The compound also gave a microsomal CLint in [5] of 8.3 µL/min/mg. Moreover, the half-life in data set [6] worked out at 2.78 h.
For `CCc1cccc(CC)c1COc1ccc2c(c1)OCC21CCN(CCC(=O)O)CC1`, the EC50 in [1] is 20 nM; in data set [2], 1580 nM; in [3] it was 1580 nM. Also, the solubility kinetic in data set [4] is at least 100 µM. Moreover, the microsomal CLint in data set [5] worked out at 0.92 µL/min/mg. In addition, the half-life in data set [6] stood at 25.2 h.
As to `Cl.O=C(O)CCN1CCCC2(COc3cc(OCc4c(Cl)cccc4Cl)ccc32)C1` (stereo unspecified), the EC50 in data set [1] was 100 nM. For the same compound, in data set [4], the solubility kinetic is at least 100 µM. Further, the microsomal CLint in data set [5] came to 3.1 µL/min/mg. In data set [6], this compound returned a half-life of 7.57 h. For the same compound, the Ratio EC50 in the data set filed under Homo sapiens [9] was found to be 100.
Consider `CCc1cccc(Cl)c1COc1ccc2c(c1)OCC21CCCN(CCC(=O)O)C1.Cl` (stereo unspecified), for which the EC50 in data set [1] is 31.6 nM; in data set [2], above 31600 nM; in data set [3], above 10000 nM. Besides, the solubility kinetic in data set [4] is at least 100 µM. For the same compound, in data set [5], the microsomal CLint amounted to 3.4 µL/min/mg. This compound also had a half-life in data set [6] of 6.82 h. The values for the Ratio EC50 in the data set filed under Homo sapiens [9] and in the data set listed under Homo sapiens [10] were 100 and 1000, respectively.
Turning to `O=C(O)CCN1CCC2(CC1)COc1cc(C#Cc3ccccc3Cl)ccc12`, the EC50 in data set [1] was 25.1 nM; in [2], above 31600 nM; in [3] it was above 10000 nM. Also, the Ratio EC50 in the data set filed under Homo sapiens [9] is 100; in the data set listed under Homo sapiens [10] it was 1000.
Consider `CCc1cccc(Cl)c1COc1ccc2c(c1)OCC21CCN(CC(C)C(=O)O)CC1.Cl` (stereo unspecified), for which the EC50 in [1] is 15.8 nM; in data set [2], 316 nM; in data set [3], above 10000 nM. Besides, the solubility kinetic in data set [4] is at least 100 µM. In data set [5], this compound came in with a microsomal CLint of 6.1 µL/min/mg. Further, the half-life in data set [6] came out at 3.8 h. Moreover, the Ratio EC50 in the data set filed under Homo sapiens [9] came out at 100.
In the case of `O=C(O)CCN1CCC2(CC1)COc1cc(OCc3c(Cl)cccc3C(F)(F)F)ccc12`, the EC50 in data set [1] was 126 nM; in data set [2], 316 nM; in data set [3] it was above 10000 nM.
For `Cc1cc(Cl)c(COc2ccc3c(c2)OCC32CCN(CCC(=O)O)CC2)c(Cl)c1`, the EC50 in data set [1] is 7.94 nM; in [2] it was 316 nM.
For the compound `CC(CN1CCC2(CC1)COc1cc(OCc3c(Cl)cccc3Cl)ccc12)C(=O)O` (stereo unspecified), the values for the EC50 in data set [1] and in data set [2] were 63.1 nM and 1260 nM, respectively.
On to `O=C(O)CN1CCC2(CC1)COc1cc(OCc3c(Cl)cccc3Cl)ccc12`, for which the concentration giving a half-maximal response (EC50) in [1] is 31.6 nM; in data set [2], 6310 nM; in data set [3] it was above 1000 nM. Besides, the Ratio EC50 in the data set listed under Homo sapiens [9] was found to be 100.
In the case of `O=C(O)CCN1CCC2(CC1)COc1cc(OCc3cccc(Cl)c3Cl)ccc12`, the EC50 in data set [1] is 200 nM; in [2] it was 1580 nM; in data set [3], above 10000 nM.
With `CCCCCCCCc1ccc(CCC(N)(CO)CO)cc1` [FINGOLIMOD], the results for the EC50 in [1] and in [3] were 3160 nM and 2510 nM, respectively. For the same compound, the solubility kinetic in data set [4] lay in the range of 1 to 6.5 µM (≈ 0.307 to 2 µg/mL).
`O=C(O)CCN1CCC2(CC1)COc1cc(OCCCc3ccccc3)ccc12`: the EC50 in data set [1] was 2000 nM; in data set [2] it was 5010 nM; in [3] it was 1580 nM.
As for `O=C(O)C(F)(F)F.O=C(O)CCN1CCC2(CC1)COc1cc(OCc3ccccc3Cl)ccc12`, the EC50 in data set [1] is 126 nM; in [3], above 31600 nM. Moreover, in data set [4], the solubility kinetic lay in the range of 30 to 100 µM. The compound also yielded a microsomal CLint in data set [5] of 9.1 µL/min/mg. In addition, in [6], the half-life was 2.55 h.
As to `Cl.O=C(O)CCN1CCC2(CC1)COc1cc(OCc3c(Cl)cccc3Cl)ccc12`, the EC50 in data set [1] was 158 nM; in [2] it was 6310 nM; in data set [3], above 10000 nM. Besides, in [4], the solubility kinetic was at least 100 µM. This compound also registered a microsomal CLint in data set [5] of 3.1 µL/min/mg. This compound registered a half-life in data set [6] of 7.45 h. The Kp in [8] came to 0.2.
With `O=C(O)CCN1CCC2(CC1)COc1cc(OCc3ccccc3)ccc12`, the results for the EC50 in data set [1], in [2] and in data set [3] were 1000 nM, above 31600 nM and above 10000 nM, respectively.
As for `CCCc1cccc(Cl)c1COc1ccc2c(c1)OCC21CCN(CCC(=O)O)CC1`, the EC50 is 15.8 nM in data set [1], 2000 nM in data set [2] and 2000 nM in data set [3]. Moreover, the Ratio EC50 in the data set listed under Homo sapiens [9] amounted to 100.
`O=C(O)CCN1CCC2(CC1)COc1cc(OCc3cccc(Cl)c3)ccc12`: the EC50 in [1] is 316 nM; in data set [2] it was above 10000 nM; in data set [3], above 10000 nM.
On to `CC(C)c1cccc(Cl)c1COc1ccc2c(c1)OCC21CCN(CCC(=O)O)CC1.Cl`, for which the half-maximal effective concentration (EC50) in [1] was 25.1 nM; in [2] it was 1260 nM; in [3], above 10000 nM. For the same compound, the solubility kinetic in data set [4] lay within 30 to 100 µM. In data set [5], this compound yielded a microsomal CLint of 2.1 µL/min/mg. Also, the half-life in data set [6] turned out to be 11.2 h. Further, the Ratio EC50 in the data set listed under Homo sapiens [9] came to 100.
Regarding `Cl.O=C(O)CCN1CCC2(CC1)COc1c2ccc(OCc2c(Cl)cccc2Cl)c1F`, the figures for the EC50 in data set [1], in data set [2] and in data set [3] were 6.31 nM, 1000 nM and above 10000 nM, respectively. In addition, the solubility kinetic in data set [4] lay in the range of 30 to 100 µM. In addition, the microsomal CLint in data set [5] amounted to 6.5 µL/min/mg. The compound further had a half-life in data set [6] of 3.55 h. Also, the Ratio EC50 in the data set listed under Homo sapiens [9] came to 1000.
For the compound `O=P(O)(O)OCCN1CCC2(CC1)COc1cc(OCc3c(Cl)cccc3Cl)ccc12`, the EC50 in data set [1] is 20 nM; in [2], 251 nM; in data set [3], above 10000 nM. Besides, the Ratio EC50 in the data set filed under Homo sapiens [9] is 100.
As for `O=C(O)CCN1CCC2(CC1)COc1cc(OCc3c(Cl)cccc3OC(F)(F)F)ccc12`, the results for the EC50 in data set [1] and in data set [2] were 20 nM and 3980 nM, respectively.
`O=C(O)CCN1CCC2(CC1)COc1cc(OCc3cc(Cl)ccc3Cl)ccc12`: the EC50 was 200 nM in [1], 12600 nM in data set [2] and 1000 nM in [3].
With `CCc1cccc(Cl)c1CSc1ccc2c(c1)OCC21CCN(CCC(=O)O)CC1.Cl`, the EC50 in data set [1] is 2.51 nM; in data set [2] it was 126 nM; in data set [3], above 1000 nM. Besides, the solubility kinetic in data set [4] was 30 to 100 µM. In data set [5], the microsomal CLint stood at 42 µL/min/mg. The same compound yielded a half-life in data set [6] of 0.55 h. In addition, the Ratio EC50 in the data set listed under Homo sapiens [9] came out at 100.
For the compound `Cl.O=C(O)CCN1CCC2(CC1)COc1cc(OCc3c(F)cccc3Cl)ccc12`, the EC50 in data set [1] was 63.1 nM; in data set [2], 6310 nM. For the same compound, the solubility kinetic in data set [4] was in the range of 30 to 100 µM. This compound showed a microsomal CLint in [5] of 2.7 µL/min/mg. In data set [6], the half-life amounted to 8.42 h. In addition, in the data set filed under Homo sapiens [9], the Ratio EC50 amounted to 100.
Turning to `Cl.O=C(O)CCN1CCC2(CC1)COc1cc(OCc3cc(Cl)nc(Cl)c3)ccc12`, the EC50 in [1] was 316 nM; in [2] it was above 31600 nM; in [3], above 10000 nM. Also, the solubility kinetic in data set [4] is above 100 µM. Besides, the microsomal CLint in data set [5] was found to be 13.9 µL/min/mg. The same compound showed a half-life in [6] of 1.67 h.
Consider `Cl.O=C(O)CCN1CCC2(CC1)COc1cc(SCc3c(Cl)cccc3Cl)ccc12`, for which the values for the EC50 in data set [1], in data set [2] and in data set [3] were 12.6 nM, above 10000 nM and 3980 nM, respectively. In addition, the solubility kinetic in [4] was at least 100 µM. The compound also came in with an intrinsic metabolic clearance (microsomal CLint) in data set [5] of 21 µL/min/mg. In data set [6], this compound yielded a half-life of 1.08 h. Further, the Ratio EC50 came to 100 in the data set filed under Homo sapiens [9] and 1000 in the data set filed under Homo sapiens [10].
With `CCc1cccc(Cl)c1COc1ccc2c(c1)OCC21CCN(CCC(=O)O)CC1`, the figures for the EC50 in data set [1] and in data set [3] were 15.8 nM and above 10000 nM, respectively. The Ratio EC50 in the data set filed under Homo sapiens [9] amounted to 100.
Regarding `O=C(O)CCCN1CCC2(CC1)COc1cc(OCc3c(Cl)cccc3Cl)ccc12`, the EC50 in [1] is 15.8 nM; in [2], 5010 nM; in data set [3] it was 1260 nM.
